The values below are quoted from earlier work in patent publication US20190117852A1, “IMPROVEMENTS IN STENTS FOR THE RELEASE OF ACTIVE PRINCIPLES” (CID S.p.A., priority 2016, published 2019).

The conditions of this series: duration of release; correlated to complete in vitro release at 30 hours.

In the case of `CO[C@H]1C[C@@H]2CC[C@@H](C)[C@@](O)(O2)C(=O)C(=O)N2CCCC[C@H]2C(=O)O[C@H]([C@H](C)C[C@@H]2CC[C@@H](O)[C@H](OC)C2)CC(=O)[C@H](C)/C=C(\C)[C@@H](O)[C@@H](OC)C(=O)[C@H](C)C[C@H](C)/C=C/C=C/C=C/1C` [Sirolimus], the “in vivo release after coronary implantation” value is recorded as “greater than 30 days”.
